Data published in US8916681B2, “Compound, use and method” (Medical Research Council, priority 2007, dated 2014).
pKd: −log10 of the molar value. Values joined by “and” are separate entries in the source; they are usually repeats but may differ in a detail not shown here. Equal entries are not always repeated. “Also recorded” adds a separate entry of the source. Where two headings read alike, the source gives them in different places. Non-standard residues stand in square brackets, D forms with d. Residues, ends and D or L forms follow the SMILES beside them.

Columns and labels:
[1] = system: GnRH neurons; assay: GnRH neuron firing, targeted extracellular recordings in brain slices; type: cell-based, mouse; conditions: for response of GnRH neuron firing to 1 nM kisspeptin-10 after pretreatment with peptide: 1, 10, 100 nM peptide
Method: Firing of GnRH neurons were recorded in brain slices from transgenic female mice in which GFP is genetically targeted to GnRH neurons (42). Mice were housed on a 14 h light, 10 h dark cycle, with lights off at 1630 h, and were maintained on Harlan 2916 rodent chow (Harlan) and water ad libitum. All procedures were approved by the Animal Care and Use Committee of University of Virginia and were conducted within the guidelines of the National Research Council's Guide for the Care and Use of Laboratory Animals. Adult female GnRH-GFP mice were ovariectomized under isoflurane (Abbott Laboratories) anesthesia. Postoperative analgesia was provided by a long-acting local anesthetic (0.25% bupivicaine; 7.5 μl/site; Abbott Laboratories). At the time of surgery, mice received Silastic (Dow Corning) capsules containing 0.625 μg estradiol in sesame oil. […] No more than four cells from a single animal were recorded, all in different slices.
Brain slices were prepared using previously described method (44). Briefly, all solutions were bubbled with a 95% O2/5% CO2 mixture throughout the experiments and for at least 15 min before exposure to the tissue. The brain was rapidly removed and placed in ice-cold, high-sucrose saline solution containing 250 mM sucrose, 3.5 mM KCl, 26 mM NaHCO3, 10 mM glucose, 1.25 mM Na2HPO4, 1.2 mM MgSO4, and 2.5 mM MgCl2. Coronal 300-μm brain slices were cut with a Vibratome 3000 (Technical Products, International, Inc., St. Louis, Mo.). Slices were incubated for 30 min at 30-32 C in a solution of 50% high-sucrose saline and 50% normal saline (NS) containing 135 mM NaCl, 3.5 mM KCl, 10 mM glucose, 1.3 mM Na2HPO4, 1.2 mM MgSO4, and 2.5 mM CaCl2 and then were transferred to a solution of 100% NS at room temperature and kept at least 30 min and no more than 6 h before recording.
Targeted extracellular recordings (also known as loose-patch) were used to study effects of kisspeptin-10 and peptide 234 on GnRH neuron firing activity (45). […] Although these events are not action potentials per se, they accurately reflect changes in the action potential firing rate. For simplicity, we have used the phrases firing rate, firing pattern, and/or firing activity to refer to these events.
Individual brain slices were placed in a recording chamber continuously superfused with oxygenated NS solution and kept at 29-31 C. Cells were visualized with an Olympus BX50WI upright fluorescent microscope with infrared differential interference contrast (Opelco). GnRH neurons were identified by brief illumination at 470 nm to visualize the GFP signal. Patch borosilicate pipettes (World Precision Instruments), which ranged from 1.5-3 ΩM were filled with normal HEPES-buffered solution containing 150 mM NaCl, 10 mM HEPES, 10 mM glucose, 2.5 mM CaCl2, 1.3 mM MgCl2, and 3.5 mM KCl. Pipettes were placed in contact with the GnRH neurons using an MP-285 micromanipulator (Sutter Instruments). Seal resistances ranged from 8 MΩ and either remained stable or increased during recording up to as high as 50 MΩ. Current traces were obtained using an EPC-8 amplifier (HEKA) with the PulseControl XOP (Instrutech) running in Igor Pro (Wavemetrics) on the G4 Macintosh computer (Apple Computer) to acquire data. A voltage-clamp mode with a pipette holding potential of 0 mV, filtering at 10 kHz, digitized with an ITC-18 acquisition interface (Instrutech) was used for the recordings.
Different doses (1 nM, 10 nM, 100 nM) of peptide 234 were used to examine its antagonistic action on kisspeptin-10 activation of gpr-54. Positive control cells were recorded for a 10-min stable baseline, and then treated with kisspeptin-10 for 5 min, followed by a 15-min washout. Experimental cells were recorded for a 5-min stable baseline in NS, followed by 10 min in peptide 234 (1, 10 or 100 nM), then 5 min in kisspeptin-10 plus the same dose of antagonist, followed by a wash in NS. […]

[2] = target: T1, GnRH receptors (Homo sapiens, UniProt P30968); assay: Binding to GnRH receptors (data not shown)
T1 sequence (P30968 1-328): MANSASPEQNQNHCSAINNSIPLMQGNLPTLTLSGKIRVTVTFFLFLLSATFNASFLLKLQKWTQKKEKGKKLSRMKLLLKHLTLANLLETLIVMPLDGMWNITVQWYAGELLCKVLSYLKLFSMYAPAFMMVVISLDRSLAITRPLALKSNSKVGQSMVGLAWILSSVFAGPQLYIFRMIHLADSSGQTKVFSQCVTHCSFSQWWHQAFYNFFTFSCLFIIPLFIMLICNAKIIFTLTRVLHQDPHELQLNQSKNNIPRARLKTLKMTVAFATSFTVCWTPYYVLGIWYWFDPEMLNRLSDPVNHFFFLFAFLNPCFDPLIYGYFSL

[3] = target: LH receptors (Homo sapiens, UniProt P22888); assay: Binding to LH receptors (data not shown)
Chain of LH receptors (P22888 27-699): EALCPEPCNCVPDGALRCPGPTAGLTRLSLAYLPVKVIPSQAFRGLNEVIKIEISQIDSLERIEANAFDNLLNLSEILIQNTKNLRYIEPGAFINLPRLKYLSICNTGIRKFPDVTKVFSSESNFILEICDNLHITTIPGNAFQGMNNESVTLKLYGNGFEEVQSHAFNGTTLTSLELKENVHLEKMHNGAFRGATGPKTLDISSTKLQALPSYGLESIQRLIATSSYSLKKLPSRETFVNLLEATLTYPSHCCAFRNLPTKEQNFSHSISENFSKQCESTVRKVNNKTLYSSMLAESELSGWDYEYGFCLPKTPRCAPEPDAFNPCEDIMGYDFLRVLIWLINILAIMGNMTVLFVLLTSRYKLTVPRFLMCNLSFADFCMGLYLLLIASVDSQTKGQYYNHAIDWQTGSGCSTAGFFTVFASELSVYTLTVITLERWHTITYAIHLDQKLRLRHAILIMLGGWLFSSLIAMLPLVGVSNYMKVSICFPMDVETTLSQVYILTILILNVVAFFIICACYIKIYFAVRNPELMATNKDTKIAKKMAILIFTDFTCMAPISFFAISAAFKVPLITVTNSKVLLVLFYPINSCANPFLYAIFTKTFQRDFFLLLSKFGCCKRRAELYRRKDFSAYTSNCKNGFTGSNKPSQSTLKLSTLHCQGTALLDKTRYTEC

[4] = target: T2, GPR54 (Homo sapiens, UniProt Q969F8); assay: Inositol phosphate (IP) stimulation assay in CHO/gpr-54 cells; type: cell-based; set-up: G. Vassart, Univ; Brussels; conditions: CHO cells stably-expressing human gpr-54
T2 sequence (Q969F8 whole entry): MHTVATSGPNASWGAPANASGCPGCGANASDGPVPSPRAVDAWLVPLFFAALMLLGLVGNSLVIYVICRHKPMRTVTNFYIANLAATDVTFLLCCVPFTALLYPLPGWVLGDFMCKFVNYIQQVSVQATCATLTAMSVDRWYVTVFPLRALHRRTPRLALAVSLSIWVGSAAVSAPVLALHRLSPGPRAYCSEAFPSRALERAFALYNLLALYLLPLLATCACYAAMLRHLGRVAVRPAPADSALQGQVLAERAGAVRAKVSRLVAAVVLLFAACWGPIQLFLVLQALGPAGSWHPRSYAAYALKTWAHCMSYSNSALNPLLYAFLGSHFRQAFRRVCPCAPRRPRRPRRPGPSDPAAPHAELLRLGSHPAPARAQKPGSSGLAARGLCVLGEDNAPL
Method: Inositol-3-phoshate Stimulation Assay—Cell monolayers had 0.5 mls HEPES modified DMEM supplemented with 1% Penicillin/Streptomycin for 30 mins at 37° C. to block IP3 breakdown. Cells were then stimulated with 0.5 mls Kisspeptin-10 and analogues (10 pM-1 uM) diluted at 1:1000 in the above media for 1 hr at 37° C., then in 10 mM Formic acid at 4° C. for 1 hr to lyse cells. Lysate was then transferred to plastic tubes containing 0.5 mls Dowex resin to bind the radioactive IP3 and the resin was then washed with 1 ml H2O. The resin was then washed with 60 mM NH4 formate/5 mM Sodium tetraborate followed by 1M NH4 formate/0.1M Formic acid to release the bound radiation. Then 800 μls of the radioactive solution were transferred to scintillation vials containing 2.5 mls scintillation fluid and radioactivity counted on a Beta counter for 60 seconds.
IP stimulation refers to intrinsic residual agonist activity where estimateable.
The cells were maintained in Dulbecco's modified Eagle's medium (DMEM; Sigma) supplemented with 10% fetal calf serum, 2% glutamine and 1% penicillin (10,000 units/ml)/streptomycin (10,000 mg/ml) at 37° C. in a humidified 5% CO2 atmosphere.
Prior to stimulation CHO/gpr-54 cells were washed twice with Dulbecco's phosphate-buffered saline (DPBS; without calcium or magnesium) then incubated overnight with ^3H-myoinositol, labeled HEPES-modified DMEM with 1% penicillin/streptomycin at 37° C. HEPES-modified DMEM supplemented with 1% penicillin/streptomycin and 1% lithium chloride (0.5 ml) was added to cells for 30 min at 37° C. to block IP hydrolysis. Cells were then stimulated with 0.5 ml kisspeptin-10 and analogues (10 pM-1 μM) diluted at 1:100 in the above media for 1 h at 37° C., then with 10 mM formic acid at 4° C. for 1 h to lyse cells. Lysates were transferred to plastic tubes containing 0.5 ml Dowex resin to bind the radioactive IP and the resin was then washed with 1 ml water. The resin was next washed with 60 mM ammonium formate/5 mM sodium tetraborate. followed by 1M ammonium formate/0.1M formic acid to release the bound radiation. Then 800 μl of the radioactive solution were transferred to scintillation vials containing 2.5 ml scintillation fluid and radioactivity counted on a Beta counter for 60 sec. Experiments were repeated 3-5 times. IP production was plotted as mean values±SEM and analyzed by using a Student's t-Test (p≧0.05).

[5] = target: T2, GPR54; assay: Whole cell receptor binding assay, competition with 125I-labelled kisspeptin-10; set-up: expressed in transfected cells; host or cells: CHO, stably transfected; conditions: competition with I125-labelled kisspeptin-10
Method: Whole Cell Receptor Binding Assay—Kisspeptin-10 and analogues were prepared at 1:1000 dilutions in HEPES modified Dulbecco's modified Eagle's medium (DMEM) supplemented with ^125I-labelled Kisspeptin to produce 100,000 counts per minute (cpm). Cell monolayers were placed on ice and exposed to 0.5 mls peptide (10 pM-1 uM); the cells were then incubated at 4° C. for 4 hr. After 4 hrs, cells were washed twice with ice cold Dulbecco's phosphate buffered saline (DPBS; with Calcium and Magnesium) and then 0.5 mls 0.1M Sodium Hydroxide (NaOH) were added to cells for 20 minutes, shaking to lyse cells. Lysates were transferred to plastic tubes and bound radioactivity counted on the gamma counter for 60 seconds.

[6] = Fetal weight after kisspeptin treatment (FIG. 6); type: in vivo

| Structure (SMILES) | GnRH neuron firing activity, peptide alone ([1]; 1 nM, post) [Hz] | GnRH neuron firing activity, peptide alone ([1]; 1 nM, pre) [Hz] | GnRH neuron firing activity, peptide alone ([1]; 10 nM, post) [Hz] | GnRH neuron firing activity, peptide alone ([1]; 10 nM, pre) [Hz] | GnRH neuron firing activity, peptide alone ([1]; 100 nM, post) [Hz] | GnRH neuron firing activity, peptide alone ([1]; 100 nM, pre) [Hz] | effect of peptide alone on GnRH neuron firing activity ([1]; 1, 10, 100 nM) | response of GnRH neuron firing to 1 nM kisspeptin-10 after pretreatment with peptide [1] | response of GnRH neuron firing to 1 nM kisspeptin-10 after pretreatment with peptide ([1]; listed as peptide 234) | binding to GnRH receptors [2] | binding to LH receptors [3] | stimulation of IP by the peptide alone [4] | pKd ([5]; read-out: binding affinity) | GnRH neuron firing activity ([1]; 1 nM agonist, listed as kisspeptin-10) | fetal weight [6] | pKd ([5]; binding affinity) |
| --- | --- | --- | --- | --- | --- | --- | --- | --- | --- | --- | --- | --- | --- | --- | --- | --- |
| CC(=O)N[C@H](C)C(=O)N[C@@H](CC(N)=O)C(=O)N[C@@H](Cc1c[nH]c2ccccc12)C(=O)N[C@@H](CC(N)=O)C(=O)NCC(=O)N[C@@H](Cc1ccccc1)C(=O)NCC(=O)N[C@H](Cc1c[nH]c2ccccc12)C(=O)N[C@@H](CCCNC(=N)N)C(=O)N[C@@H](Cc1ccccc1)C(N)=O [Peptide 234] (Ac-[dA]NWNGFG[dW]RF-NH2) | 0.27±0.08 | 0.18±0.12 | 0.29±0.17 | 0.34±0.15 | 0.62±0.14 | 0.45±0.12 | no effect | block | significantly reduced; also recorded: blocked | did not bind | did not bind | little or no stimulation; also recorded: no intrinsic IP stimulation | 8.70 and 8.57 | – | – | – |
| CC(C)C[C@H](NC(=O)CNC(=O)[C@H](Cc1ccccc1)NC(=O)[C@H](CO)NC(=O)[C@H](CC(N)=O)NC(=O)[C@H](Cc1c[nH]c2ccccc12)NC(=O)[C@H](CC(N)=O)NC(=O)[C@@H](N)Cc1ccc(O)cc1)C(=O)N[C@@H](CCCNC(=N)N)C(=O)N[C@@H](Cc1ccccc1)C(N)=O [Kiss, reference compound] | – | – | – | – | – | – | – | – | – | – | – | – | – | significantly increased; also recorded: markedly increased | decreased | 8.70 |
